Data published in US20070196395A1, “Immunomodulatory compounds that target and inhibit the py'binding site of tyrosene kinase p56 lck sh2 domain” (priority 2003, published 2007).

Test system: lymphocytes from two different strains of mice (B6 black and balb/c)
Assay: Mixed lymphocyte culture, 3H-thymidine uptake
Format: cell-based, mouse
Settings: 100 μM to 1 μM; biphasic = inhibition at 100 μM, activation at 1 μM
Procedure: 100 mM solutions of compounds were prepared in DMSO.
Mixed lymphocyte culture assays were performed where lymphocytes from two different strains of mice with different histocompatibility antigens were mixed. Due to the difference in the histocompatibility antigens, resting T cells from both strains of mice will undergo blast transformation and propagate. As in any T cell activation process, the activation of Lck is essential. Therefore, the modulation of activation of Lck can be quantified as the downstream modulation in the levels of ^3H-TdR incorporation into DNA. 24 out of the 34 identified compounds were tested […], with 13 compounds showing inhibitory activity at a 100 μM concentration (FIG. 2). Thus, over 50% of the compounds identified by the in vitro assay also show activity in the cellular functional assay at the conditions described herein. These compounds represent the most promising leads for further development. […] Such effects may be associated with the regulatory mechanism of p56 Lck.
Another readout assay that is used to measure biological response is a mixed lymphocyte culture assay in which lymphocytes from two. different strains of mice with different histocompatibility antigens are mixed. Due to the difference in the histocompatibility antigens, resting T cells from both strains of mice undergo blast transformation and propagate. As in any T cell activation process, the activation of p56^lck is essential. Therefore, the modulation of p56^lck activity can be quantified as the downstream modulation in the levels of [^3H]-TdR incorporation into DNA.
Lymph node or splenic lymphocytes are harvested from two different allogeneic strains of mice. Cells (1×10^6) from each strain are mixed in 96 well culture plates containing 200 μl of culture medium in the presence or absence of the compound (0.1˜100 μM) and cultured for 72 h. Six hours before harvest, 0.5 μCi of [^3H]-TdR is added to each well. […] Filters are washed with PBS and then with ethanol and [^3H]-TdR incorporated into DNA is measured using scintillation counting. […]

Compound | activity profile in mixed lymphocyte culture assay across tested concentrations
N=C1S/C(=C/c2ccc(-c3cccc(C(=O)O)c3)o2)C(=O)N1c1ccc(F)cc1 [Compound 73] | inhibition
Cc1ccc(NC(=O)c2cccc(NC(=O)c3ccccc3C(=O)O)c2)cc1C [Compound 99] | Biphasic
COc1ccc(OC)c(NC(=O)CCNC(=O)Cn2cnc3ccccc3c2=O)c1 [Compound 139] | Biphasic

Biological target: SH2 domain of p56 Lck (Homo sapiens, UniProt P06239)
Sequence (P06239 whole entry, the tested form may be a part): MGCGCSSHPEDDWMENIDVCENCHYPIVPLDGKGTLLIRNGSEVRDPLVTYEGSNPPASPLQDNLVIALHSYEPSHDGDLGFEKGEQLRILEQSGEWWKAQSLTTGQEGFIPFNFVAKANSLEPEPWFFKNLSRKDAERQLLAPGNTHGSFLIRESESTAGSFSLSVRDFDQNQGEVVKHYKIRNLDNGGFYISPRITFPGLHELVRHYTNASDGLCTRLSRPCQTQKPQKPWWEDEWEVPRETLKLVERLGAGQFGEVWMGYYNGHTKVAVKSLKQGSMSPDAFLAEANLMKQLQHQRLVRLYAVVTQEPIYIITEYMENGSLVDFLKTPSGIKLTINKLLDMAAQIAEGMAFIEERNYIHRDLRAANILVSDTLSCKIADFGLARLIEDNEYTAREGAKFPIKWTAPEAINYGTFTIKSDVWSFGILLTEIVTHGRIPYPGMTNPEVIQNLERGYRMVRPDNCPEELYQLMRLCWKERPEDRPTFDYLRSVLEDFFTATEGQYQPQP
Assay: Inhibition of binding of the CD3ζ ITAM2 peptide to the SH2 domain of p56 Lck (affinity precipitation from Jurkat cell lysate, immunoblot)
Settings: 100 μM; decreased blot intensity vs control
Procedure: In vitro Assay for the Inhibition of Binding of the CD3ζ ITAM2 Peptide to the SH2 Domain of p56 Lck. […] Inhibition of binding was assayed by affinity precipitation of p56Lck in cell lysates as follows.
Confluent cells were harvested, washed 3 times in chilled, sterile phosphate buffered saline (PBS, BioSource), and were resuspended (5×10^5 /ml) in lysis buffer containing 1% Triton X-100 (Fisher), 1 mM EDTA (Fisher), 0.2 mM sodium orthovanadate, 500 μM AEBSF, 150 nM aprotinin, 1 μM E-64, 0.5 mM EDTA, and 1 μM leupeptin (Protease Cocktail Set I, Calbiochem, San Diego, Calif.). The suspension was sonicated on ice at 60 W power (VibraCell, Sonics and Materials, Danbury, Conn.) for 6×5 second bursts with a 1 minute cooling period between bursts. The resulting lysate was then centrifuged at 20,000 x g (RC-5B, Sorvall, Newtown, Conn.) at 4° C., and the supernatent was used in the assay.
Putative inhibitors to be tested were freshly dissolved in dimethyl sulfoxide (DMSO, cell culture grade, Sigrna) at a concentration of 10 mM before the assay and 10 μl of this was added to 1 ml of cell lysate in 1.5 ml tubes (Sarstedt, Newton, North Carolina). The tubes were placed on an end-over-end rotator (Model C400110, Barnstead/Thermolyne, Dubuque, Iowa) at 4° C. and allowed to rotate for 30 minutes. 20 μl of a 50% slurry of the ITAM-conjugated agarose beads (in PBS; EM Science, Gibbstown, New Jersey) was then added to each tube, and tubes were rotated overnight.
The beads were washed 3 times in 800 μl lysis buffer. Excess lysis buffer was aspirated off, and 10 ml sample loading buffer containing 3% β-mercaptoethanol (Fisher) was added to the beads and, after brief vortexing and soiication, tubes were immersed in a boiling water bath for 2 minutes. They were then centrifuged and the supernatent was loaded onto 8% Tris-HCl gels (GeneMate, ISC Bioexpress, Kaysville, Utah) and run at 100 V for 1.5 hours in a Protean III Mini Gel Unit (Bio-Rad, Hercules, Calif.). The gels were transferred onto polyvinylidene fluoride membrane (Immobilon-P, Millipore, Bedford, Mass.) in a Mini Trans-Blot Electrophoretic Transfer Cell ,(Bio-Rad). The membrane was blocked with PBS (EM Science) solution containing 5% powdered milk (Nestle, Solon, Ohio) for 1 hour; exposed to primary antibody (anti-lck, rabbit polyclonal IgG, Upstate Biotechnologies, Lake Placid, N.Y.) at 1:5000 dilution in 1% w/v powdered milk (Nestle, Solon, Ohio) in PBST [PBS containing 0.5% v/v Tween 20 (Sigma, St. Louis, Mo.)] and washed 3 times for 5 minutes each in PBST. […]

Compound | inhibition of p56 Lck SH2 domain association with phosphotyrosine-containing ITAM2 peptide
Nc1nnc(SCc2ccc(C(=O)O)cc2)s1 [Compound 239] | significant inhibitory activities
O=C(O)CC1S/C(=N\N=C2\CCCc3ccccc32)NC1=O (stereo not shown) [Compound 245] | significant inhibitory activities
O=C(O)CSc1cccnc1Sc1ccc(Cl)cc1 [Compound 262] | significant inhibitory activities
O=C(O)CSc1nsc(SCC(=O)O)n1 [Compound 232] | significant inhibitory activities
